Measured values: PMC6664820, “Novel natural and synthetic inhibitors of solute carriers SGLT1 and SGLT2” (Pharmacology Research & Perspectives, 2019)
Where two headings read alike, the source gives them in different places.

Legend:
[1] = target: T1, hSGLT2 (Homo sapiens, UniProt P31639); experiment: SGLT2 inhibition assay for validation of screening hits and similar compounds (1‐NBD‐glucose uptake, CHO‐hSGLT2 cells); format: cell-based; design: activity: dose or concentration left out as unconfirmed; conditions: for remaining activity at 5 µM / remaining activity at 50 µM: 0.5 h, concentration not given, read-out: NORMALIZED SGLT2 ACTIVITY (%); for remaining activity at 5 µM / remaining activity at 50 µM / activity: mean; for activity: compound, normalized 1-NBD-glucose uptake, CHO-hSGLT2 cells; for SGLT2/SGLT1 ACTIVITY RATIO 5 uM Mean: ratio of normalized SGLT2 to SGLT1 activity at 5 uM
T1 sequence (P31639 1-672): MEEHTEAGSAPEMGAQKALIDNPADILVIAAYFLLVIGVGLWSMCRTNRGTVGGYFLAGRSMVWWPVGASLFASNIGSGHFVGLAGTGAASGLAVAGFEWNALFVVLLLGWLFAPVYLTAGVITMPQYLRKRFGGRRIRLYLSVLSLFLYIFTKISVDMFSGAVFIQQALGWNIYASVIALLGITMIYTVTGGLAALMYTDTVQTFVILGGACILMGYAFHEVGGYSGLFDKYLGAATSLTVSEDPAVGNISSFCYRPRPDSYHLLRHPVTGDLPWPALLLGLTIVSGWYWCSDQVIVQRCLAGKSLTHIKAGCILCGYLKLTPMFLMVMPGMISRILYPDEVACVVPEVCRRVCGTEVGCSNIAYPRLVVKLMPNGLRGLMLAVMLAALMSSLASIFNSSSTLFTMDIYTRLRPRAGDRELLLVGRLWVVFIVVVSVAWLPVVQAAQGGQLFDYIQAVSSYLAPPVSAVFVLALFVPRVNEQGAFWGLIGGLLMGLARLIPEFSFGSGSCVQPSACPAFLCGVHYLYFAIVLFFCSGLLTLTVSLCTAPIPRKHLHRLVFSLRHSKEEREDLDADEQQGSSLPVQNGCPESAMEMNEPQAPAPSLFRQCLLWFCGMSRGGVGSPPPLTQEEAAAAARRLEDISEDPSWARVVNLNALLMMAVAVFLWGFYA

[2] = target: T2, SGLT1 (Homo sapiens, UniProt P13866); experiment: SGLT1 inhibition assay for validation of screening hits and similar compounds (1‐NBD‐glucose uptake, CHO‐hSGLT1 cells); format: cell-based; design: activity: dose or concentration left out as unconfirmed; conditions: for remaining activity at 5 µM / remaining activity at 50 µM: 0.5 h, concentration not given, read-out: NORMALIZED SGLT1 ACTIVITY (%); for remaining activity at 5 µM / remaining activity at 50 µM / activity: mean; for activity: compound, normalized 1-NBD-glucose uptake, CHO-hSGLT1 cells; for inhibition at 50 µM: read-out: SGLT1 inhibition
T2 sequence (P13866 1-664): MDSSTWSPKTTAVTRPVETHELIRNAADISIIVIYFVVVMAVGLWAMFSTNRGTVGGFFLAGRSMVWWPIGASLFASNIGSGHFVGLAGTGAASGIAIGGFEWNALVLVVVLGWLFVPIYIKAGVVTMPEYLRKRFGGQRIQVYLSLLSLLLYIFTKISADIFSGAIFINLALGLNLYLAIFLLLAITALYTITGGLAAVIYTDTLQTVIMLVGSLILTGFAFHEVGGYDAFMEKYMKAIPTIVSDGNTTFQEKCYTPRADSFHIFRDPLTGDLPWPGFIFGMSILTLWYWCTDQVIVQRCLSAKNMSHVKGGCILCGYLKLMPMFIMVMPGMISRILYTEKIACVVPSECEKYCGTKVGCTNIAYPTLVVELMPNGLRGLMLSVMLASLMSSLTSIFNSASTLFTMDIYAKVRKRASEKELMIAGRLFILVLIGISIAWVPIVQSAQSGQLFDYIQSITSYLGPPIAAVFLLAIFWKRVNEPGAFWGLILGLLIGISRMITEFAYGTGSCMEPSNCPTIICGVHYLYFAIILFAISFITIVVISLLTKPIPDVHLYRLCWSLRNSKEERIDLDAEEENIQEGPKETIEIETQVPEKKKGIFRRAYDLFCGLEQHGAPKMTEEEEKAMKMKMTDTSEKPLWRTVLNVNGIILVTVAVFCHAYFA

[3] = mean inhibition with 50 μmol/L inhibitor

SMILES | remaining activity at 5 µM [1] [%] | remaining activity at 50 µM [1] [%] | remaining activity at 5 µM [2] [%] | remaining activity at 50 µM [2] [%] | activity [1] [%] | SGLT2/SGLT1 ACTIVITY RATIO 5 uM Mean [1] | activity [2] [%] | also measured
C=C[C@H]1C[N@@]2CC[C@H]1C[C@@H]2[C@@H](O)c1ccnc2ccccc12 [Cinchonine] | 111 | 105 | 121 | 112 | – | – | – | –
OC[C@H]1O[C@@H](Oc2cc(O)cc(/C=C/c3ccc(O)cc3)c2)[C@H](O)[C@@H](O)[C@@H]1O [Polydatin] | – | – | – | – | 97 | 1.0 | 94 | inhibition at 50 µM [1, 3]: 18%; SGLT2/SGLT1‐50μmol/L (ratio of SGLT2 to SGLT1 activities with 50 μmol/L inhibitor) [2]: 1.5; inhibition at 50 µM [2, 3]: 46%
CN(C)CCOC(c1ccc(Cl)cc1)c1ccccn1 (centres unmarked) [Carbinoxamine] | – | – | – | – | 100 | 1.0 | 105 | –
Clc1ccc(C(OCCN2CCCCC2)c2ccccc2)cc1 (centres unmarked) [Cloperastine, cloperastine, reference compound] | – | – | – | – | – | – | – | IC50 ([1]; 1‐NBD‐glucose uptake, CHO‐hSGLT2, mean of n biological replicates, or individual measurements where n=2, read-out: SGLT2‐IC50 Mean): 9 µM; IC50 ([2]; 1‐NBD‐glucose uptake, CHO‐hSGLT1, mean of n biological replicates, or individual measurements where n=2, read-out: SGLT1‐IC50 Mean): 9 µM; SGLT1/2 inhibition stated in words ([2]; SGLT1 and/or SGLT2, discussion statements): novel SGLT1/2 inhibitors; inhibition at 50 µM [2, 3]: 72%
CC[C@H]1CN2CC[C@H]1C[C@H]2[C@H](O)c1ccnc2ccc(OC)cc12 [Dihydroquinine] | 94 | 58 | 99 | 63 | – | – | – | –
CC(=O)OC(C)(C)C1Cc2cc3ccc(=O)oc3cc2O1 (centres unmarked) | – | – | – | – | 101 | 1.0 | 106 | –
OC(CCN1CCCCC1)(c1ccccc1)C1CCCCC1 (centres unmarked) [Trihexyphenidyl, trihexyphenidyl, reference compound] | – | – | – | – | – | – | – | IC50 [1]: 20 µM; IC50 [2]: 12 µM; SGLT1/2 inhibition stated in words [2]: novel SGLT1/2 inhibitors; inhibition at 50 µM [2]: 69%
Oc1ccc(C=Cc2cc(O)cc3c2C(c2cc(O)cc(O)c2)C(c2ccc(O)cc2)O3)cc1 (stereo not drawn) [(−)‐ε‐viniferin] | – | – | – | – | – | – | – | inhibition at 50 µM [1, 3]: 35%; SGLT2/SGLT1‐50μmol/L (ratio of SGLT2 to SGLT1 activities with 50 μmol/L inhibitor) [2]: 0.6; SGLT1 inhibition [2, 3]: did not inhibit SGLT1
c1ccc(CO[C@H]2COCCN(Cc3ccccn3)C2)cc1 | – | – | – | – | 110 | 0.9 | 120 | –
COc1ccc2ccc(=O)oc2c1C(OC(C)=O)C(=O)C(C)C (centres unmarked) [Hainanmurpanin] | – | – | – | – | 108 | 1.0 | 110 | –
CC1(C)Oc2ccc3ccc(=O)oc3c2[C@H](O)[C@@H]1O (relative stereo) [cis‐khellactone] | – | – | – | – | – | – | – | SGLT2 inhibition [1, 3]: no SGLT inhibition; SGLT1 inhibition [2, 3]: no SGLT inhibition
c1coc(-c2nnc([C@H]3CCN(C4CCCCC4)C3)o2)c1 | 98 | 89 | 122 | 98 | – | – | – | –
CC(C)(C)C(=O)C(Oc1ccc(Cl)cc1)n1cncn1 (centres unmarked) [Triadimefon] | 91 | 76 | 101 | 58 | – | – | – | –
Clc1ccc(C2(Cn3cncn3)OCCO2)c(Cl)c1 [Azaconazole] | 109 | 104 | 111 | 107 | – | – | – | –
Oc1c(Br)cc(Br)c2cccnc12 [Broxyquinoline] | 100 | 90 | 110 | 69 | – | – | – | –
Cc1cc(C)c(NC(=O)C2CCCCN2C2CCCCC2)c(C)c1 (centres unmarked) | 81 | 52 | 92 | 58 | – | – | – | –
CCN(CC)CCC(O)(c1ccccc1)C1CCCCC1 (centres unmarked) | – | – | – | – | 69 | 0.952 | 72 | –
